{"source": "patent US20250128062A1", "about": "(priority 2023, published 2025)", "key": {"[1]": {"conditions": "in vivo; cited from earlier work"}, "[2]": {"conditions": "patients; cited from earlier work"}, "α1 unit of Na,K-ATPase": {"biological_target": "α1 unit of Na,K-ATPase", "conditions": "read-out: Kd to block the α1 unit of Na,K-ATPase; cited from earlier work"}, "[3]": {"test_system": "afferent transmission in C-fiber and Aδ-fiber afferents (DRG)", "experiment": "ex vivo single-fiber recordings of afferent transmission block by DRG stimulation with local Na,K-ATPase inhibition (3-compartment tissue chamber)", "description": "FIG. 9A is a plot of ex vivo single-fiber recordings from afferent axons in a 3-compartment tissue chamber that isolates the DRG from the spinal nerve and dorsal root allowing focused pharmacological application.\nAction potentials were evoked by stimulating the peripheral end of the spinal nerve, which is transmitted down the peripheral and central axons to be recorded by extracellular single-fiber recordings from split dorsal root filaments."}}, "note": "Entries after “also recorded” stand apart in the source; their conditions may differ.", "data": [{"smiles": "C[C@H]1O[C@@H](O[C@H]2[C@@H](O)C[C@H](O[C@H]3[C@@H](O)C[C@H](O[C@H]4CC[C@@]5(C)[C@H](CC[C@@H]6[C@@H]5CC[C@]5(C)[C@@H](C7=CC(=O)OC7)CC[C@]65O)C4)O[C@@H]3C)O[C@@H]2C)C[C@H](O)[C@@H]1O", "note": "[digitoxin]", "values": [{"measurement": "route of elimination from the body", "setting": "[1]", "result": "eliminated via the liver"}]}, {"smiles": "C[C@H]1O[C@@H](O[C@H]2[C@@H](O)C[C@H](O[C@H]3[C@@H](O)C[C@H](O[C@H]4CC[C@@]5(C)[C@H](CC[C@@H]6[C@@H]5C[C@@H](O)[C@]5(C)[C@@H](C7=CC(=O)OC7)CC[C@]65O)C4)O[C@@H]3C)O[C@@H]2C)C[C@H](O)[C@@H]1O", "note": "[digoxin]", "values": [{"measurement": "serum level considered safe with no apparent side effects", "setting": "[2]", "result": "< 1.0", "unit": "ng/mL"}]}, {"smiles": "C[C@@H]1O[C@@H](O[C@H]2C[C@@H](O)[C@]3(CO)[C@H]4[C@H](O)C[C@]5(C)[C@@H](C6=CC(=O)OC6)CC[C@]5(O)[C@@H]4CC[C@]3(O)C2)[C@H](O)[C@H](O)[C@H]1O", "note": "[ouabain]", "values": [{"measurement": "Kd", "setting": "α1 unit of Na,K-ATPase", "result": "32 to 170", "unit": "µM"}, {"measurement": "transmission block of C-fiber afferent by 10 Hz DRG stimulation", "setting": "[3]; 10 Hz DRG stimulation combined with ouabain 10 μg/mL (17.1 μM), OBF for C-fibers ~50 Hz without drug", "result": "effectively blocks afferent transmission; also recorded: transmission block is achieved; also recorded: selectively block C-fiber afferents"}, {"measurement": "transmission block of Aδ-fiber afferent by 10 Hz DRG stimulation", "setting": "[3]; 10 Hz DRG stimulation combined with ouabain 17.1 μM", "result": "unblocked; also recorded: unaffected"}, {"measurement": "transmission block by DRG stimulation as measured by the time to resume transmission following terminating the DRG stimulation", "setting": "[3]; ouabain 10 μg/mL or 17.1 μM applied locally to the DRG in the middle compartment", "result": "significantly prolonged"}, {"measurement": "separation of optimal blocking frequency (OBF) between C-fibers and thinly myelinated Aδ-fibers", "setting": "[3]; ouabain applied to the DRG", "result": "greater separation"}]}]}
